Assay results reported in the supplement of paper PMC10307832.

Legend:
Experiment in all cases: relative viability (nuclei count vs DMSO), 5 days (fraction); higher = more cells survive
NCI-H2347 = tested on: NCI-H2347
Procedure, shortened: (§1)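 Lung cancer cell lines were pin-tool dosed in 1536-well plates on the day after seeding, with either a lone drug or a fixed anchor-drug dose plus five library-drug doses (not always all listed) in √10 steps. Nuclei were counted on 4× images after 5 days. Relative viability is the ratio of treated-well to vehicle-well nuclei counts, with each value a median of duplicate plates.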

NCI-H650 = tested on: NCI-H650
Procedure, shortened: as §1

NCI-H522 = tested on: NCI-H522
Procedure, shortened: as §1

NCI-H441 = tested on: NCI-H441
Procedure, shortened: as §1

201T = tested on: 201T
Procedure, shortened: as §1

NCI-H1395 = tested on: NCI-H1395
Procedure, shortened: as §1

NCI-H2087 = tested on: NCI-H2087
Procedure, shortened: as §1

NCI-H647 = tested on: NCI-H647
Procedure, shortened: as §1

NCI-H596 = tested on: NCI-H596
Procedure, shortened: as §1

NCI-H2009 = tested on: NCI-H2009
Procedure, shortened: as §1

NCI-H3122 = tested on: NCI-H3122
Procedure, shortened: as §1

EMC-BAC-2 = tested on: EMC-BAC-2
Procedure, shortened: as §1

NCI-H2023 = tested on: NCI-H2023
Procedure, shortened: as §1

NCI-H1666 = tested on: NCI-H1666
Procedure, shortened: as §1

LCLC-103H = tested on: LCLC-103H
Procedure, shortened: as §1

BEN = tested on: BEN
Procedure, shortened: as §1

NCI-H23 = tested on: NCI-H23
Procedure, shortened: as §1

HARA = tested on: HARA
Procedure, shortened: as §1

NCI-H838 = tested on: NCI-H838
Procedure, shortened: as §1

LOU-NH91 = tested on: LOU-NH91
Procedure, shortened: as §1

HCC-44 = tested on: HCC-44
Procedure, shortened: as §1

NCI-H727 = tested on: NCI-H727
Procedure, shortened: as §1

NCI-H2126 = tested on: NCI-H2126
Procedure, shortened: as §1

NCI-H1993 = tested on: NCI-H1993
Procedure, shortened: as §1

COc1cc(N2CCC(C(N)=O)CC2)ccc1Nc1nc(N)c(Cl)c(Nc2ccccc2S(=O)(=O)C(C)C)n1 [HG-5-88-01] + N=C(N)NC(=N)NCCc1ccccc1 [Phenformin] (partner 250 µM)
relative viability (NCI-H2347; first compound 0.04 µM): 0.295 | relative viability (NCI-H2347; first compound 0.1265 µM): 0.626 | relative viability (NCI-H2347; first compound 0.4 µM): 0.448 | relative viability (NCI-H2347; first compound 1.265 µM): 0.41 | relative viability (NCI-H2347; first compound 4 µM): 0.487 | relative viability (NCI-H650; first compound 0.04 µM): 0.429 | relative viability (NCI-H650; first compound 0.1265 µM): 0.492 | relative viability (NCI-H650; first compound 0.4 µM): 0.417 | relative viability (NCI-H650; first compound 1.265 µM): 0.424 | relative viability (NCI-H650; first compound 4 µM): 0.335 | relative viability (NCI-H522; first compound 0.04 µM): 0.711 | relative viability (NCI-H522; first compound 0.1265 µM): 0.657 | relative viability (NCI-H522; first compound 0.4 µM): 0.697 | relative viability (NCI-H522; first compound 1.265 µM): 0.558 | relative viability (NCI-H522; first compound 4 µM): 0.502 | relative viability (NCI-H441; first compound 0.04 µM): 0.835 | relative viability (NCI-H441; first compound 0.1265 µM): 0.789 | relative viability (NCI-H441; first compound 0.4 µM): 0.852 | relative viability (NCI-H441; first compound 1.265 µM): 0.589 | relative viability (NCI-H441; first compound 4 µM): 0.294 | relative viability (201T; first compound 0.04 µM): 0.54 | relative viability (201T; first compound 0.1265 µM): 0.452 | relative viability (201T; first compound 0.4 µM): 0.479 | relative viability (201T; first compound 1.265 µM): 0.547 | relative viability (201T; first compound 4 µM): 0.397 | relative viability (NCI-H1395; first compound 0.04 µM): 0.423 | relative viability (NCI-H1395; first compound 0.1265 µM): 0.422 | relative viability (NCI-H1395; first compound 0.4 µM): 0.45 | relative viability (NCI-H1395; first compound 1.265 µM): 0.449 | relative viability (NCI-H1395; first compound 4 µM): 0.463 | relative viability (NCI-H2087; first compound 0.04 µM): 0.523 | relative viability (NCI-H2087; first compound 0.1265 µM): 0.49 | relative viability (NCI-H2087; first compound 0.4 µM): 0.469 | relative viability (NCI-H2087; first compound 1.265 µM): 0.342 | relative viability (NCI-H2087; first compound 4 µM): 0.319 | relative viability (NCI-H647; first compound 0.04 µM): 0.663 | relative viability (NCI-H647; first compound 0.1265 µM): 0.595 | relative viability (NCI-H647; first compound 0.4 µM): 0.624 | relative viability (NCI-H647; first compound 1.265 µM): 0.608 | relative viability (NCI-H647; first compound 4 µM): 0.643 | relative viability (NCI-H596; first compound 0.04 µM): 0.657 | relative viability (NCI-H596; first compound 0.1265 µM): 0.807 | relative viability (NCI-H596; first compound 0.4 µM): 0.612 | relative viability (NCI-H596; first compound 1.265 µM): 0.728 | relative viability (NCI-H596; first compound 4 µM): 0.379 | relative viability (NCI-H2009; first compound 0.04 µM): 0.475 | relative viability (NCI-H2009; first compound 0.1265 µM): 0.527 | relative viability (NCI-H2009; first compound 0.4 µM): 0.534 | relative viability (NCI-H2009; first compound 1.265 µM): 0.484 | relative viability (NCI-H2009; first compound 4 µM): 0.366 | relative viability (NCI-H3122; first compound 0.04 µM): 0.216 | relative viability (NCI-H3122; first compound 0.1265 µM): 0.17 | relative viability (NCI-H3122; first compound 0.4 µM): 0.146 | relative viability (NCI-H3122; first compound 1.265 µM): 0.129 | relative viability (NCI-H3122; first compound 4 µM): 0.15 | relative viability (EMC-BAC-2; first compound 0.04 µM): 0.541 | relative viability (EMC-BAC-2; first compound 0.1265 µM): 0.491 | relative viability (EMC-BAC-2; first compound 0.4 µM): 0.442 | relative viability (EMC-BAC-2; first compound 1.265 µM): 0.507 | relative viability (EMC-BAC-2; first compound 4 µM): 0.486 | relative viability (NCI-H2023; first compound 0.04 µM): 0.521 | relative viability (NCI-H2023; first compound 0.1265 µM): 0.466 | relative viability (NCI-H2023; first compound 0.4 µM): 0.473 | relative viability (NCI-H2023; first compound 1.265 µM): 0.411 | relative viability (NCI-H2023; first compound 4 µM): 0.34 | relative viability (NCI-H1666; first compound 0.04 µM): 0.581 | relative viability (NCI-H1666; first compound 0.1265 µM): 0.57 | relative viability (NCI-H1666; first compound 0.4 µM): 0.544 | relative viability (NCI-H1666; first compound 1.265 µM): 0.558 | relative viability (NCI-H1666; first compound 4 µM): 0.459 | relative viability (LCLC-103H; first compound 0.04 µM): 0.332 | relative viability (LCLC-103H; first compound 0.1265 µM): 0.342 | relative viability (LCLC-103H; first compound 0.4 µM): 0.311 | relative viability (LCLC-103H; first compound 1.265 µM): 0.308 | relative viability (LCLC-103H; first compound 4 µM): 0.302 | relative viability (BEN; first compound 0.04 µM): 0.304 | relative viability (BEN; first compound 0.1265 µM): 0.271 | relative viability (BEN; first compound 0.4 µM): 0.274 | relative viability (BEN; first compound 1.265 µM): 0.267 | relative viability (BEN; first compound 4 µM): 0.285 | relative viability (NCI-H23; first compound 0.04 µM): 0.767 | relative viability (NCI-H23; first compound 0.1265 µM): 0.833 | relative viability (NCI-H23; first compound 0.4 µM): 0.786 | relative viability (NCI-H23; first compound 1.265 µM): 0.868 | relative viability (NCI-H23; first compound 4 µM): 0.441 | relative viability (HARA; first compound 0.04 µM): 0.439 | relative viability (HARA; first compound 0.1265 µM): 0.513 | relative viability (HARA; first compound 0.4 µM): 0.48 | relative viability (HARA; first compound 1.265 µM): 0.432 | relative viability (HARA; first compound 4 µM): 0.324 | relative viability (NCI-H838; first compound 0.04 µM): 0.505 | relative viability (NCI-H838; first compound 0.1265 µM): 0.558 | relative viability (NCI-H838; first compound 0.4 µM): 0.411 | relative viability (NCI-H838; first compound 1.265 µM): 0.368 | relative viability (NCI-H838; first compound 4 µM): 0.313 | relative viability (LOU-NH91; first compound 0.04 µM): 0.701 | relative viability (LOU-NH91; first compound 0.1265 µM): 0.721 | relative viability (LOU-NH91; first compound 0.4 µM): 0.664 | relative viability (LOU-NH91; first compound 1.265 µM): 0.421 | relative viability (LOU-NH91; first compound 4 µM): 0.416 | relative viability (HCC-44; first compound 0.04 µM): 0.303 | relative viability (HCC-44; first compound 0.1265 µM): 0.156 | relative viability (HCC-44; first compound 0.4 µM): 0.201 | relative viability (HCC-44; first compound 1.265 µM): 0.159 | relative viability (HCC-44; first compound 4 µM): 0.0886 | relative viability (NCI-H727; first compound 0.04 µM): 0.554 | relative viability (NCI-H727; first compound 0.1265 µM): 0.484 | relative viability (NCI-H727; first compound 0.4 µM): 0.394 | relative viability (NCI-H727; first compound 1.265 µM): 0.416 | relative viability (NCI-H727; first compound 4 µM): 0.352 | relative viability (NCI-H2126; first compound 0.04 µM): 0.552 | relative viability (NCI-H2126; first compound 0.1265 µM): 0.58 | relative viability (NCI-H2126; first compound 0.4 µM): 0.525 | relative viability (NCI-H2126; first compound 1.265 µM): 0.461 | relative viability (NCI-H2126; first compound 4 µM): 0.384 | relative viability (NCI-H1993; first compound 0.04 µM): 0.501 | relative viability (NCI-H1993; first compound 0.1265 µM): 0.471 | relative viability (NCI-H1993; first compound 0.4 µM): 0.438 | relative viability (NCI-H1993; first compound 1.265 µM): 0.558 | relative viability (NCI-H1993; first compound 4 µM): 0.527
